Consider 29 compounds from US7253286B2, “Nitrogen-containing aromatic derivatives” (Eisai Co., Ltd, priority 2000, dated 2007).

In this test the test system is Human Umbilical Vein Endothelial Cells (HUVECs). Kind of test: Inhibition against sandwich tube formation by vascular endothelial cells in response to stimulation by VEGF. Format: cell-based. The note with it: HUVEC in collagen gel sandwich, stimulation by VEGF (25 ng/ml VEGF and 10 ng/ml EGF), 4th day, total tube length, read-out: IC50 (concentration required for 50% inhibition of tube formation). As for the experimental part: Inhibition Against Sandwich Tube Formation by Vascular Endothelial Cells in Response to Stimulation by Angiogenic Factor
Human Umbilical Vein Endothelial Cells (HUVECS) were isolated by the same method as in Pharmacological Test Example 1, and were cultured in a 5% CO2 incubator (37° C.) using EGM-2 medium (purchased from Clonetics Corp.) until the cells reached confluency.
An ice-cooled mixture of collagen: 5× RPMI 1640: reconstitution buffer (all purchased from Nitta Gelatin, Inc.) at 7:2:1 was dispensed at 0.4 ml into each well of a 24-well plate, and then stationed for 40 minutes in a 5% CO2 incubator (37° C.) for gelling. The HUVECs were recovered using trypsin-EDTA and then suspended in human endothelial serum free medium (SFM, purchased from GIBCO BRL) containing added angiogenic factors [20 ng/ml FGF2 (purchased from GIBCO BRL) and 10 ng/ml EGF (purchased from GIBCO BRL), or 25 ng/ml VEGF (purchased from Wako Pure Chemical Industries Co., Ltd.) and 10 ng/ml EGF, or 30 ng/ml HGF (purchased from R&D Co.) and 10 ng/ml EGF], and the cell suspension was added at 0.4 ml to each well (with the cell counts differing slightly according to the HUVEC lot), and cultured overnight in a 5% CO2 incubator (37° C.). On the following day, the medium on the upper layer was aspirated off, and then 0.4 ml of an ice-cooled mixture of collagen: 5× RPMI 1640: reconstitution buffer (all purchased from Nitta Gelatin, Inc.) at 7:2:1 was superposed into each well prior to stationing for 4 hours in a 5% CO2 incubator (37° C.) for gelling. After adding 1.5 ml of an SFM solution containing each of the aforementioned angiogenic factors and a diluted test substance onto the upper layer, culturing was performed in a 5% CO2 incubator (37° C.). Upon aspirating off the culture supernatant in each well on the 4th day after addition of the test substance, 0.4 ml of a 3.3 mg/ml MTT solution dissolved in PBS (purchased from Sigma Corp.) was added to each well and culturing was performed for approximately 2 hours in a 5% CO2 incubator (37° C.). The tubes formed in the collagen gel of each well were stained by the MTT, the tube images were loaded into a computer (Macintosh), and the total length of the tubes was determined by image analysis software “MacScope” (purchased from Mitani Corp.). The ratio of the total length of the tubes formed in the well containing the test substance with respect to the total length of the tubes formed in the well containing no test substance was expressed as a percentage, and the concentration of each test substance required for 50% inhibition of tube formation (IC50) was determined from the ratio value.
For the compound `O=C(C1CC1)N(C(=O)C1CC1)c1cc(Oc2ccc3c(ccn3C(=O)NC3CC3)c2)ccn1` [Example 211, N1-Cyclopropyl-5-({2-[di(cyclopropylcarbonyl)amino]-4-pyridyl}oxy)-1H-1-indolecarboxamide], the IC50 worked out at 0.3 nM.
As for `O=C(Nc1cc(Oc2ccc3c(ccn3C(=O)NCCF)c2)ccn1)C1CC1` [Example 215, N1-(2-Fluoroethyl)-5-({2-[(cyclopropylcarbonyl)amino]-4-pyridyl}oxy)-1H-1-indolecarboxyamide], the IC50 is 22 nM.
Consider `COc1cc2nccc(Oc3ccc(NC(=O)Nc4nccs4)nc3)c2cc1OC` [Example 224, N-(5-(6,7-Dimethoxyquinolin-4-yloxy)pyridin-2-yl)-N′-(thiazol-2-yl)urea], for which the IC50 was found to be 26 nM.
Under `COCCNC(=O)c1cc2c(Oc3ccc(NC(=O)NC4CC4)c(Cl)c3)ccnc2cc1OCCOC` [Example 249, N6-(2-Methoxyethyl)-4-(3-chloro-4-{[(cyclopropylamino)carbonyl]amino}phenoxy)-7-(2-methoxyethoxy)-6-quinolinecarboxamide] stands 1.6 nM.
Next, `COCCOc1cc2nccc(Sc3ccc(NC(=O)Nc4ccccc4F)s3)c2cc1C#N` [Example 256, 1-{5-[6-Cyano-7-(2-methoxyethoxy)quinolin-4-ylsulfanyl]thiophen-2-yl}-3-(2-fluorophenyl)urea]: 36 nM.
Next, `N#Cc1cc2c(Oc3ccc4c(ccn4C(=O)Nc4nccs4)c3)ccnc2cc1OCCCN1CCCC1` [Example 289, 5-[6-Cyano-7-(3-(pyrrolidin-1-yl)propoxy)quinolin-4-yloxy]indole-1-carboxylic acid (thiazol-2-yl)amide]: 4.6 nM; `CCN(CC)CCCOc1cc2nccc(Oc3ccc4[nH]ccc4c3)c2cc1C#N` [Example 296, 7-(3-Diethylaminopropoxy)-4-(1H-indol-5-yloxy)quinoline-6-carbonitrile]: 34 nM; `CCNC(=O)n1ccc2cc(Oc3ccnc4cc(OCCCN5CCCC5)c(C#N)cc34)ccc21` [Example 299, 5-[6-Cyano-7-(3-(pyrrolidin-1-yl)propoxy)quinolin-4-yloxy]indole-1-carboxylic acid ethylamide]: 1 nM.
For `CCN(CC)CCCOc1cc2nccc(Oc3ccc4c(ccn4C(=O)Nc4nccs4)c3)c2cc1C#N` [Example 300, 5-[6-Cyano-7-(3 diethylaminopropoxy)quinolin-4-yloxy]indole-1-carboxylic acid (thiazol-2-yl)amide], the IC50 is 7.5 nM.
Consider `CCNC(=O)n1ccc2cc(Oc3ccnc4cc(OCC5CCN(C)CC5)c(C#N)cc34)ccc21` [Example 304, 6-Cyano-4-(1-ethylcarbamoylindol-5-yloxy)-7-[(1-methylpiperidin-4-yl)methyloxy]quinoline], for which the IC50 was 0.3 nM.
`CN1CCC(COc2cc3nccc(Oc4ccc5c(ccn5C(=O)Nc5nccs5)c4)c3cc2C#N)CC1` [Example 308]: the IC50 amounted to 5.2 nM.
Under `COc1cc2nccc(Oc3ccc4c(ccn4C(=O)NC(C)C)c3)c2cc1C(N)=O` [Example 320, 6-Carbamoyl-7-methoxy-4-[1-(1-methyl)ethylcarbamoyl-1H-indol-5-yloxy]quinoline] stands 2.5 nM; under `COc1cc2nccc(Oc3ccc4c(ccn4C(=O)NCCCCl)c3)c2cc1C(N)=O` [Example 325, 6-Carbamoyl-4-[1-(3-chloropropylcarbamoyl)1H-indol-5-yloxy]-7-methoxyquinoline], 1 nM; under `CCOCCCNC(=O)n1ccc2cc(Oc3ccnc4cc(OC)c(C(N)=O)cc34)ccc21` [Example 326, 6-Carbamoyl-4-[1-(3-ethoxypropylcarbamoyl)1H-indol-5-yloxy]-7-methoxyquinoline], 1 nM.
Under `CCN(CC)CCCNC(=O)n1ccc2cc(Oc3ccnc4cc(OC)c(C(N)=O)cc34)ccc21` [Example 327, 6-Carbamoyl-4-[1-(3-diethylaminopropylcarbamoyl)1H-indol-5-yloxy]-7-methoxyquinoline] stands 56 nM.
For `CCN(CC)CCCOc1cc2nccc(Oc3ccc(NC(=O)NC4CC4)c(F)c3)c2cc1C(N)=O` [Example 372, 4-(4-(Cyclopropylaminocarbonyl)amino-3-fluorophenoxy)-7-(3-(N,N-diethylamino)propoxy)-6-quinolinecarboxamide], the IC50 stood at 44 nM.
On to `NC(=O)c1cc2c(Oc3ccc(NC(=O)NC4CC4)c(Cl)c3)ccnc2cc1OCCO` [Example 386, 4-(3-Chloro-4-(cyclopropylaminocarbonyl)aminophenoxy)-7-(2-hydroxyethoxy)-6-quinolinecarboxamide], for which the IC50 stood at 10 nM.
Turning to `COc1cc2nccc(Oc3ccc(NC(=O)NC4CC4)c(Cl)c3)c2cc1C(=O)Nc1ncc[nH]1` [Example 405, N6-(1H-2-Imidazolyl)-4-(3-chloro-4-(((cyclopropylamino)carbonyl)amino)phenoxy)-7-methoxy-6-quinolinecarboxamide], the IC50 is 28 nM.
Next, `COc1cc2nccc(Oc3ccc(NC(=O)NC4CC4)c(Cl)c3)c2cc1C(=O)Nc1cccnc1` [Example 408, N6-(3-Pyridyl)-4-(3-chloro-4-(((cyclopropylamino)carbonyl)amino)phenoxy)-7-methoxy-6-quinolinecarboxamide]: 39 nM; `CCN(CC)CCCOc1cc2nccc(Oc3ccc(NC(=O)NC4CC4)c(Cl)c3)c2cc1C#N` [Example 419, N-(2-Chloro-4-((6-cyano-7-(3-(diethylamino)propoxy)-4-quinolyl)oxy)phenyl)-N′-cyclopropylurea]: 10 nM.
With `COC(=O)c1cc2c(Oc3ccc(N(C)C(=O)Nc4ccc(F)cc4)cc3)ccnc2cc1OC` [Example 433, Methyl 4-(4-(((4-fluoroanilino)carbonyl)(methyl)amino)phenoxy)-7-methoxy-6-quinoline carboxylate], the IC50 was 5.6 nM.
Under `COCCNC(=O)c1cc2c(Oc3ccc(N(C)C(=O)Nc4ccc(F)cc4)cc3)ccnc2cc1OC` [Example 436, N6-(2-Methoxyethyl)-4-(4-(((4-fluoroanilino)carbonyl)(methyl)amino)phenoxy)-7-methoxy-6-quinolinecarboxamide] stands 22 nM.
In the case of `COc1cc2nccc(Oc3ccc(NC(=O)NC4CC4)c(Cl)c3)c2cc1C(=O)NCCC#N` [Example 440, N6-(2-Cyanoethyl)-4-(3-chloro-4-(((cyclopropylamino)carbonyl)amino)phenoxy)-7-methoxy-6-quinolinecarboxamide], the IC50 stood at 1.4 nM.
On to `CNC(=O)c1cc2c(Oc3ccc(NC(=O)NC4CC4)c(Cl)c3)ccnc2cc1OC` [Example 442, N6-Methyl-4-(3-chloro-4-(((cyclopropylamino)carbonyl)amino)phenoxy)-7-methoxy-6-quinolinecarboxamide], for which the IC50 was found to be 7.2 nM.
Next, `CCCNC(=O)c1cc2c(Oc3ccc(NC(=O)NC4CC4)c(Cl)c3)ccnc2cc1OC` [Example 444, N6-Propyl-4-(3-chloro-4-(((cyclopropylamino)carbonyl)amino)phenoxy)-7-methoxy-6-quinolinecarboxamide]: 5.5 nM.
Under `C#CCNC(=O)c1cc2c(Oc3ccc(NC(=O)NC4CC4)c(Cl)c3)ccnc2cc1OC` [Example 445, N6-Propargyl-4-(3-chloro-4-(((cyclopropylamino)carbonyl)amino)phenoxy)-7-methoxy-6-quinolinecarboxamide] stands 6.2 nM.
As for `COc1cc2nccc(Oc3ccc(NC(=O)NC4CC4)c(Cl)c3)c2cc1C(=O)NCC1CC1` [Example 446, N6-Cyclopropylmethyl-4-(3-chloro-4-(((cyclopropylamino)carbonyl)amino)phenoxy)-7-methoxy-6-quinolinecarboxamide], the IC50 turned out to be 4 nM.
As to `COc1cc2nccc(Oc3ccc(NC(=O)NC4CC4)c(Cl)c3)c2cc1C(=O)NC[C@H]1CCCO1` [Example 450, N6-((2R)Tetrahydro-2-furanylmethyl)-4-(3-chloro-4-(((cyclopropylamino)carbonyl)amino)phenoxy)-7-methoxy-6-quinolinecarboxamide], the IC50 came out at 4.5 nM.
For `N#Cc1cc2c(Oc3ccc(NC(=O)Nc4ccc(F)cc4)cc3)ccnc2cc1OC[C@H](O)CN1CCCC1` [Example 454, N-(4-((6-Cyano-7-(((2R)-2-hydroxy-3-(1-pyrrolidino)propyl)oxy)-4-quinolyl)oxy)phenyl)-N′-(4-fluorophenyl)urea], the IC50 was 3.7 nM.
